Molecular target: Toll-like receptor 2 (Homo sapiens, UniProt O60603)
Experiment: LR2 Assays
Experimental: Next, 50 μL of an approximate 3×EC50 concentration of each agonist (Pam2CSK4 or Pam3CSK4) was added to the wells containing test compounds or the vehicle control. The plates were then incubated at 37° C./5% CO2 for 18 h. For each assay run, non-treated HEK-Blue hTLR2 cells were treated with serial dilutions of agonists to determine EC50 values for the respective run. On day 2, secreted alkaline phosphatase (SEAP) activity was detected in cell culture supernatants. In brief, 20 μL was collected from each well and transferred to a 96-well plate. Next, 200 μL of Quanti-Blue detection reagent was added to each well. […] IC50 values were calculated based on 8-point dilutions for each compound.

Toll-like receptor 2, sequence (O60603 whole entry): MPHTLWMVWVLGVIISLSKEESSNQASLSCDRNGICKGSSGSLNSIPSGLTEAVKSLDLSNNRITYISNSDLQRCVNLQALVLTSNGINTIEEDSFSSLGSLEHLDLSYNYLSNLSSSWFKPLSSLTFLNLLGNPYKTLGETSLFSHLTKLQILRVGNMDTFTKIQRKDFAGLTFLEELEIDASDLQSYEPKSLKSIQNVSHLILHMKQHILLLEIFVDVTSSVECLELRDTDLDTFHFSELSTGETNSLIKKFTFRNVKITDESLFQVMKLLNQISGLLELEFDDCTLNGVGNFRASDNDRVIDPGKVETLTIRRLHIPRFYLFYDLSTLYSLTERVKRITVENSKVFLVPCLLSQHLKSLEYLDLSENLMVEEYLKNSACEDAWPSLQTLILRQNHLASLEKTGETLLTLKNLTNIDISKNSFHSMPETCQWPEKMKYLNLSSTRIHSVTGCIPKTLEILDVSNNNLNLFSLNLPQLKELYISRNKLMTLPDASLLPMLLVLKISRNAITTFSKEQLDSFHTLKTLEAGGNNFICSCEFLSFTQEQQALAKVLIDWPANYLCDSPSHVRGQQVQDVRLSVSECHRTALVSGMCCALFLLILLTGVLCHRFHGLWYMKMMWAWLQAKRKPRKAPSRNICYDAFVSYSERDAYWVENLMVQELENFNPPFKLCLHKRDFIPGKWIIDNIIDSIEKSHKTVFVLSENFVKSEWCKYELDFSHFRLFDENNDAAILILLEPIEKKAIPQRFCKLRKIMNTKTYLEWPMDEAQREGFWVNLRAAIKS

- IC50: 5.2 µM
SMILES: O=Cc1cc(NC(=O)c2csc(N3CCCCC3)n2)cc(F)c1O [US20240043395, Compound 9]

— BindingDB's records for patent US20240043395 (Neuropore Therapies, 2024)
